From patent US20030040476A1, “EAG gene” (priority 1999, published 2003)

Assays:
hEAG2 channel [1] = assay: Modulation of hEAG2 current during progesterone-induced G2-M progression in Xenopus oocytes; type: cell-based, human; conditions: oocytes treated with 20 μg/ml progesterone while recording; homogenous at all voltages tested
Protocol: (§1) For Xenopus oocyte expression, the cDNA was cloned into a suitable vector containing the translation initiation sequences and the polyadenylation sequence of Xenopus b-globin. This optimizes the expression in oocytes. The template was prepared by linearization of the construct, and RNA was synthesized using the T7 promotor. The synthetic RNA was injected into stage V-VI oocytes using standard techniques (approximately 50 ng/oocyte). The currents expressed were then measured 48-96 hours after the injection using two-electrode voltage clamp.
The modulation of hEAG2 during cell cycle was determined using the natural cell cycle arrest of oocytes in the G2 stage of the first meiotic division. The progression of the cycle through the G2-M boundary is triggered by progesterone. We have treated the oocytes with 20 μg/ml progesterone while recording the hEAG2 currents. […] Importantly, the reduction was homogenous at all voltages tested (as opposite to what happens with EAG1).

hEAG2 channel [2] = molecular target: T1, hEAG2 channel (Homo sapiens, UniProt Q8NCM2); assay: Magnesium dependence of hEAG2 activation, two-electrode voltage clamp in Xenopus oocytes; type: cell-based
T1 construct: expressed in transfected cells; host or cells: Xenopus oocytes (stage V-VI), injected with synthetic RNA
T1 sequence (Q8NCM2 1-988): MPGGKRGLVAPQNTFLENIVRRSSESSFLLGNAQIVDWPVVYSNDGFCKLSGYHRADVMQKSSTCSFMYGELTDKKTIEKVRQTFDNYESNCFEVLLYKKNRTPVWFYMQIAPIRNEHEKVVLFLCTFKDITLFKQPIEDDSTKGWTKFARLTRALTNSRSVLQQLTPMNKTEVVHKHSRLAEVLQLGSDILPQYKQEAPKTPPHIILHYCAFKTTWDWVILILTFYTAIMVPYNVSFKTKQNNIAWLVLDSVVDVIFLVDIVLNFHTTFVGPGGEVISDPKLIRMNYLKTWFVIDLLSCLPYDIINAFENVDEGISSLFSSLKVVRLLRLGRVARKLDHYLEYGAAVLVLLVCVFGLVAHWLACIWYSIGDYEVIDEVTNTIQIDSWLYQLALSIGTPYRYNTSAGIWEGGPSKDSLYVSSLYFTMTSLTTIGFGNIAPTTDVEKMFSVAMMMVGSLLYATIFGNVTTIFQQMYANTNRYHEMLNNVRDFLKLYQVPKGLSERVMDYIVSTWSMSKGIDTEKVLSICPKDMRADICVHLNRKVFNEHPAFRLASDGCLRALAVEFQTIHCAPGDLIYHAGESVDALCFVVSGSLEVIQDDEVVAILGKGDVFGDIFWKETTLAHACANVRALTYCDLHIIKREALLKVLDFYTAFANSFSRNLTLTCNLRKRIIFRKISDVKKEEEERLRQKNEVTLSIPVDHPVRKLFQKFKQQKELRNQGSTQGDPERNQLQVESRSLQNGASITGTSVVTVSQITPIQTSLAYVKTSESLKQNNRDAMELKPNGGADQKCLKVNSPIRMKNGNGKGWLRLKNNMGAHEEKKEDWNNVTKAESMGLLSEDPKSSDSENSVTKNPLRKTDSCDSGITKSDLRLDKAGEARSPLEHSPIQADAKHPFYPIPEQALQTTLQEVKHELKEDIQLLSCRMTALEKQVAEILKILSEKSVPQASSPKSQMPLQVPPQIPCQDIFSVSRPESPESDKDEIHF
Protocol: as §1
The depencence on the holding potential of the time constant of activation was determined using a conditioning potential between −150 and −60 mV during 5 s prior to the test pulse. The time required to achieve 80% of the maximal amplitude in the test pulse was then plotted against the conditioned potential, and fitted with a Boltzmann distribution. Extracellular magnesium is known to slow down the activation of EAG1. We determined the magnesium dependence of hEAG2 using the protocol descibed above in the presence of different external magnesium concentrations. The value of Vhalf obtained from the fit was plotted against the magnesium concentration, giving a semimaximal effect of extracellular magnesium at 80 μM (FIG. 7).

EC50 (hEAG2 channel [2]; hEAG2 in Xenopus oocytes, conditioning potential -150 to -60 mV for 5 s before test pulse, extracellular magnesium, read-out: apparent EC50 for the effect of magnesium (Vhalf of activation time versus Mg^2+ concentration))	slowing of activation in 2 mM Mg^2+ versus 200 μM Mg^2+ (hEAG2 channel [2]; prepulse potential -60 mV, 2 mM versus 200 μM Mg^2+)	SMILES	effect on hEAG2 current amplitude (hEAG2 channel [1])
		CC(=O)[C@H]1CC[C@H]2[C@@H]3CCC4=CC(=O)CC[C@]4(C)[C@H]3CC[C@]12C [progesterone]	reduction of the current with time
80 µM	three times slower	[Mg+2] [magnesium]	
